# Experimental data taken from BindingDB's records for doi:10.1021/jm00114a027 (Research Biochemicals, 1991).
# Test: Compound was tested for binding affinity to dopamine reuptake sites in the tissue homogenates prepared from […] striatum using [3H]CFT as radioligand
row,Compound,IC50 [nM]
1,"COC(=O)C1C(c2ccc(I)cc2)CC2CCC1N2C [(3S,5R)-methyl 3-(4-iodophenyl)-8-methyl-8-aza-bicyclo[3.2.1]octane-2-carboxylate]",88
2,COC(=O)[C@@H]1C2CC[C@H](C[C@@H]1c1ccc(I)cc1)N2C,1.6
